Tests used:
[1] = tested on: human acute monocytic leukemia cell line MV-4-11; assay: Assay 2: cell proliferation assay (ATP quantitation, CellTiter-Glo), MV-4-11; assay type: cell-based; settings: Homo sapiens, MV4-11, 72 h, MV-4-11 cells
In short: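 Read-out is CellTiter-Glo luminescence quantifying ATP. Compound exposure lasted 72 h at 37° C., 5% CO2, with 1.67×10^4 MV-4-11 cells per well in 10% FBS medium, alongside HL-60 toxicity-control cells.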

[2] = target: T1, biotinylated wild-type menin and MLL-AF9 fusion protein (menin/MLL binding) (Homo sapiens, UniProt O00255); assay: Assay 1: menin/MLL binding AlphaLISA assay, wild-type menin; settings: Table 30; column head does not say wild-type or mutated menin
T1 construct: made in house; host or cells: menin: E. coli; MLL-AF9-FLAG: HEK293 cells, used as cleared lysate
T1 sequence (O00255 1-610): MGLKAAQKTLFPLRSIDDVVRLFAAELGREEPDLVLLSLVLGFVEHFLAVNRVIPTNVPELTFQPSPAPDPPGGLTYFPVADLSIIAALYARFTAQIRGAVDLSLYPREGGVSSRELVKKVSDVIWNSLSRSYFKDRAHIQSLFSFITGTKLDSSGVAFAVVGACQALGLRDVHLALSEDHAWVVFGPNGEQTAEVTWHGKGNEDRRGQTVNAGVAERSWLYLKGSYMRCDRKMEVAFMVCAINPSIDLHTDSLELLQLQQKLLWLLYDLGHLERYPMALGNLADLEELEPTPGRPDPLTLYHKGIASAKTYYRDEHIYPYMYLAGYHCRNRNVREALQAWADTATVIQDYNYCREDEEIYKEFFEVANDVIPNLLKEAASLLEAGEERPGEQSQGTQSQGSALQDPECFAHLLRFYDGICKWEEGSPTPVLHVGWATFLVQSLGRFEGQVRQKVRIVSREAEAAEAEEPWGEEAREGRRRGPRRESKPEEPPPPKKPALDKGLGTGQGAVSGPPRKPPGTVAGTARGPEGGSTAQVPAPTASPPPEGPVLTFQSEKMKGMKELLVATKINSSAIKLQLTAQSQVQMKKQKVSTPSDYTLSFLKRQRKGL
In short: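 Compound was preincubated 30 min at room temperature with biotinylated menin (5 nM) and MLL-AF9-FLAG lysate from HEK293 cells, pH 7.4 buffer with 5% DMSO and DTT. Bead-based Alpha signal after 60 min with streptavidin donor and anti-FLAG acceptor beads; four-parameter logistic fit gave IC50.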

SMILES	EC50 [1]	IC50 [2]
CCN(C(=O)C(C)C)c1cc(F)ccc1Oc1cncnc1N1CC2(CCN(C[C@H]3CC[C@H](NC(=O)OC)CC3)CC2)C1 [Example 85, methyl ((1r,4r)-4-((2-(5-(2-(N-ethylisobutyramido)-4-fluorophenoxy)pyrimidin-4-yl)-2,7-diazaspiro[3.5]nonan-7-yl)methyl)cyclohexyl) carbamate]	100 to 1000 nM	< 100 nM
CC(C)N(C(=O)c1cc(F)ccc1Oc1cncnc1N1CC2(CN(CC[C@H]3CC[C@H](NC(=O)CC(C)(C)C)CC3)C2)C1)C(C)C [Example 87, 2-((4-(6-(2-((1r,4r)-4-(3,3-dimethyl-butanamido)cyclo-hexyl)ethyl)-2,6-diazaspiro[3.3]heptan-2-yl)pyrimidin-5-yl)oxy)-5-fluoro-N,N-diisopropyl-benzamide]	100 to 1000 nM	< 100 nM
CC(C)N(C(=O)c1cc(F)ccc1Oc1cncnc1N1CC2(CCN(CC(C)(C)O)CC2)C1)C(C)C [Example 89, 5-fluoro-2-((4-(7-(2-hydroxy-2-methylpropyl)-2,7-diazaspiro[3.5]nonan-2-yl)pyrimidin-5-yl)oxy)-N,N-diisopropylbenzamide]	100 to 1000 nM	< 100 nM
CC(C)N(C)C(=O)c1cc(F)ccc1Oc1cncnc1N1CC2(CC(NC3CCOCC3)C2)C1 [Example 92, 5-fluoro-N-isopropyl-N-methyl-2-((4-(6-((tetrahydro-2H-pyran-4-yl)amino)-2-azaspiro[3.3]heptan-2-yl)pyrimidin-5-yl)oxy)benzamide]	100 to 1000 nM	< 100 nM

Continued, values first:

EC50 [1]	IC50 [2]	SMILES
100 to 1000 nM	< 100 nM	CC(C)N(C)C(=O)c1cc(F)ccc1Oc1cncnc1N1CC2(CC(NC[C@H]3CC[C@H](NC(=O)OC(C)(C)C)CC3)C2)C1 [Example 83, tert-butyl ((1r,4r)-4-(((2-(5-(4-fluoro-2-(isopropyl(methyl)carbamoyl)phenoxy)pyrimidin-4-yl)-2-azaspiro[3.3]heptan-6-yl)amino)methyl)cyclohexyl)carbamate]
< 100 nM	< 100 nM	CCN(C(=O)C(C)C)c1cc(F)ccc1Oc1cncnc1N1CC2(CCN(C[C@H]3CC[C@H](NC(=O)OC(C)(C)C)CC3)CC2)C1 [Example 84, tert-butyl ((1r,4r)-4-((2-(5-(2-(N-ethylisobutyramido)-4-fluorophenoxy)pyrimidin-4-yl)-2,7-diazaspiro[3.5]nonan-7-yl)methyl)cyclohexyl) carbamate]
< 100 nM	< 100 nM	CCN(C(=O)C(C)C)c1cc(F)ccc1Oc1cncnc1N1CC2(CCN(C[C@H]3CC[C@H](NS(C)(=O)=O)CC3)CC2)C1 [Example 86, N-ethyl-N-(5-fluoro-2-((4-(7-(((1r,4r)-4-(methylsulfonamido)cyclohexyl)methyl)-2,7-diazaspiro [3.5]nonan-2-yl)pyrimidin-5-yl)oxy)phenyl)iso-butyramide]
< 100 nM	< 100 nM	CC(C)(C)OC(=O)N[C@H]1CC[C@H](CCN2CC3(C2)CN(c2ncncc2Oc2ccc(F)cc2-c2cccnc2C2CC2)C3)CC1 [Example 88, tert-butyl ((1r,4r)-4-(2-(6-(5-(2-(2-cyclopropylpyridin-3-yl)-4-fluorophenoxy)pyrimidin-4-yl)-2,6-diazaspiro[3.3]heptan-2-yl)ethyl)cyclohexyl) carbamate]
< 100 nM	< 100 nM	CC(C)N(C(=O)c1cc(F)ccc1Oc1cncnc1N1CCC2(CCN(Cc3ccc4c(c3)NC(=O)C4(C)C#N)C2)C1)C(C)C (centres unmarked) [Example 90, 2-((4-(7-((3-cyano-3-methyl-2-oxoindolin-6-yl)methyl)-2,7-diazaspiro[4.4]nonan-2-yl)pyrimidin-5-yl)oxy)-5-fluoro-N,N-diisopropylbenzamide]
< 100 nM	< 100 nM	CCN(C(=O)OC)c1cc(F)ccc1Oc1cncnc1N1CCC2(CCN(Cc3ccc4[nH]c(=O)[nH]c4c3)C2)C1 (centres unmarked) [Example 91, methyl ethyl(5-fluoro-2-((4-(7-((2-oxo-2,3-dihydro-1H-benzo[d]imidazol-5-yl)methyl)-2,7-diazaspiro [4.4]nonan-2-yl)pyrimidin-5-yl)oxy)phenyl) carbamate]

Reference: patent publication US12312359B2 (Vitae Pharmaceuticals, LLC, priority 2016, dated 2025)
